Test results published in patent US20260034091A1, “Compositions and Methods for Treating Metabolic Disorders” (The Regents of the University of California, priority 2022, published 2026).

What was measured:
[1] = tested on: CDAHFD induced late stage NAFLD/NASH in mice; assay: In-depth investigation of rescue effect of TOFA in CDAHFD induced late stage NAFLD/NASH; assay type: in vivo, C57BL/6J male mice; conditions: four weeks
Experimental: Six-week-old C57BL/6J male mice were fed with a L-amino acid diet with 60 kcal % fat with 0.1% methionine and no added choline (CDAHFD; Research Diets A06071302i) for eight weeks. Ten subjects were randomly assigned to either a vehicle (control) treatment or a 125 mg/kg. BID, of TOFA treatment delivered by oral gavage for an additional four weeks. Mice weights were monitored during the entire treatment time course. Upon study termination at 12 weeks, serum and liver samples were collected. Serum liver damage biomarkers, ALT and AST, were measured by commercially available kits (abcam 105134 and abcam 105135, respectively). Hepatic and serum triglyceride levels were measured from a commercially available kit (abcam65336). Total RNA was extracted from liver tissues (Qiagen RNeasy kit 74106), and cDNA was prepared (BioRAD iScript™ Reverse Transcription) according to manufacturer's protocols. Quantitative PCR (qPCR) was performed with fast SYBR Green Mix (ThermoFisher A25742) on the QuantStudio6 System (Applied Biosciences).

[2] = tested on: 60% HFD diet-induced obesity with PPARA KO; assay: TOFA in genetic PPARA knockout mice, 60% HFD diet-induced obesity (DIO) model; assay type: in vivo, PPARA knockout (PPARA KO) male mice
Experimental: (§1) Six-week-old genetic PPARA knockout (PPARA KO) male mice were fed with a L-amino acid diet with 60 kcal % fat with 0.1% methionine and no added choline (CDAHFD; Research Diets A06071302i) for three weeks or fed with a 60 kcal % fat diet (DIO; Research Diets A12492i) for eight weeks before introduction of either vehicle (control) or 125 mg/kg of TOFA, BID, via oral gavage for an additional two weeks (FIG. 11A and FIG. 11J, respectively). C57BL/6J (WT) mice were fed with the CDAHFD and underwent similar experimental conditions and time course. Mice weights and adverse events were monitored during the treatment time course. Upon study termination, serum and liver samples were collected. Serum liver damage biomarkers, ALT and AST, were measured by commercially available kits (abcam105134 and abcam 105135, respectively). Hepatic and serum triglyceride levels were measured from a commercially available kit (abcam65336). Total RNA was extracted from liver tissues (Qiagen RNeasy kit 74106), and cDNA was prepared (BioRAD iScript™M Reverse Transcription) according to manufacturer's protocols. Quantitative PCR (qPCR) was performed with fast SYBR Green Mix (ThermoFisher A25742) on the QuantStudio6 System (Applied Biosciences). Protein expression levels of liver samples were measured by western blot using antibodies against ACC1/2 (CST3662, 1:1000), VLDLR (AF2258, 1:2000), CPT1A (CST12252, 1:1000), PPARA (abcam126285, 1:1000) and beta-tubulin (CST2146, 1:1000). Membranes were developed using a HRP secondary antibody (1:5000) and visualized using an enhanced chemiluminescent HRP substrate (Thermo34577). Additional liver samples were fixed in 4% paraformaldehyde and embedded in paraffin blocks for sectioning and subsequently stained with hematoxylin and eosin (H&E). Frozen fresh liver tissue was embedded in OCT, sectioned, and subsequently stained with Oil Red O.

[3] = tested on: CDAHFD diet-induced NAFLD/NASH with PPARA KO; assay: TOFA in genetic PPARA knockout mice, CDAHFD model of NAFLD/NASH; assay type: in vivo, PPARA knockout (PPARA KO) male mice
Experimental: as §1

[4] = tested on: CDAHFD-induced late stage NAFLD/NASH in mice; assay: Benchmark study against Firsocostat and Fenofibrate in CDAHFD-induced late stage NAFLD/NASH; assay type: in vivo, C57BL/6J male mice; conditions: QD oral gavage four weeks
Experimental: Six-week-old C57BL/6J male mice were fed with a L-amino acid diet with 60 kcal % fat with 0.1% methionine and no added choline (CDAHFD; Research Diets A06071302i) for eight weeks. Mice were randomly assigned to treatment groups of either a vehicle (control), 250 mg/kg of TOFA, 5 mg/kg of Firsocostat (Gilead Sciences), 50 mg/kg of Fenofibrate, or a combined dose of 5 mg/kg Firsocostat and 50 mg/kg Fenofibrate. All treatments were delivered QD by oral gavage for an additional four weeks. Mice weights and food intake were monitored during the treatment time course. Upon study termination at 12 weeks, liver and serum samples were collected. Serum liver damage biomarkers, ALT and AST, were measured by commercially available kits (abcam 105134 and abcam 105135, respectively). Hepatic and serum triglyceride levels were measured from a commercially available kit (abcam65336). Total RNA was extracted from liver tissues (Qiagen RNeasy kit 74106), and cDNA was prepared (BioRAD iScript™ Reverse Transcription) according to manufacturer's protocols. Quantitative PCR (qPCR) was performed with fast SYBR Green Mix (ThermoFisher A25742) on the QuantStudio6 System (Applied Biosciences). Protein expression levels of liver samples were measured by western blot using antibodies against VLDLR (AF2258, 1:2000), CPT1A (CST12252, 1:1000) and Histone H3 (CST9715, 1:1000). Membranes were developed using a HRP secondary antibody (1:5000) and visualized using an enhanced chemiluminescent HRP substrate (Thermo34577). Additional liver samples were fixed in 4% paraformaldehyde and embedded in paraffin blocks for sectioning and subsequently stained with hematoxylin and eosin (H&E).

CCCCCCCCCCCCCCOc1ccc(C(=O)O)o1 [TOFA, 5-(Tetradecyloxy)-2-furoic acid]
hepatic hydrogen peroxide levels ([1]; 125 mg/kg BID oral gavage): decrease | liver triglyceride levels ([1]; 125 mg/kg BID oral gavage): significant decrease | serum ALT ([1]; 125 mg/kg BID oral gavage): trending decreases | serum AST ([1]; 125 mg/kg BID oral gavage): trending decreases | body weight ([1]; 125 mg/kg BID oral gavage, vs vehicle): significant decrease | expression of genes involved in collagen biosynthesis by qPCR ([1]; liver mRNA, 125 mg/kg BID): decreased | expression of inflammation genes (Il1b, Tnfa) by RT-qPCR ([1]; liver mRNA, 125 mg/kg BID): decrease in expression | genes with PPAR regulatory elements (beta-oxidation, lipogenesis) by RT-qPCR ([1]; liver mRNA, 125 mg/kg BID): upregulated | body weight upon treatment start ([2]; 125 mg/kg BID oral gavage): decrease in weight | Vldlr mRNA (RT-qPCR) ([2]; 125 mg/kg BID, two weeks): blunted response | hepatic steatosis (H&E-stained liver sections) ([2]; 125 mg/kg BID, two weeks): minimal changes in hepatic steatosis | serum triglyceride (serum lipid levels) ([2]; 125 mg/kg BID, two weeks): elevated serum lipid levels | adverse events ([2]; 125 mg/kg BID, two-week treatment period): Adverse events were observed | body weight ([3]; 125 mg/kg BID oral gavage, two weeks): trending decrease in weight | Cpt1a mRNA (RT-qPCR) ([3]; 125 mg/kg BID, two weeks): blunted | hepatic steatosis (H&E) ([3]; 125 mg/kg BID, two weeks): minimal decreases in hepatic steatosis | lipid content by Oil Red O ([3]; 125 mg/kg BID, two weeks): minimal changes in lipid content | liver triglyceride (hepatic lipid levels) ([3]; 125 mg/kg BID, two weeks): no notable decrease | serum ALT levels ([3]; 125 mg/kg BID, two weeks): marginal decreases | serum AST levels ([3]; 125 mg/kg BID, two weeks): marginal decreases | protein expression levels of CPT1A, VLDLR, and ACC1 (western blot) ([3]; relative to vehicle control): not observed | food intake [4]: not attributed to changes in food intake | liver damage ([4]; TOFA 250 mg/kg): largely decreased liver damage relative to vehicle control treatment at comparable, or stronger, degrees than Firsocostat, Fenofibrate, or the combination of the two agents | liver triglyceride levels ([4]; TOFA 250 mg/kg): strong decrease in liver triglyceride levels relative to Firsocostat treatments and vehicle control treatment | body weight ([4]; TOFA 250 mg/kg, Firsocostat 5 mg/kg, Fenofibrate 50 mg/kg): significant weight loss | PPARA downstream targets Vldlr and Cpt1a (RT-qPCR) ([4]; liver mRNA): unique increase | genes involved in inflammation (Il1b, Il6) and collagen synthesis (Col1a1, Col3a) by RT-qPCR ([4]; liver mRNA): specific, comparable response | protein expression levels of VLDLR and CPT1A (western blot) ([4]; liver samples): increased protein expression levels of VLDLR and CPT1A to higher degrees than the other treatment regimens | steatosis (H&E staining) ([4]; liver sections): decreased levels of steatosis
